In ChEMBL document CHEMBL1938302, “Synthesis of novel histamine H4 receptor antagonists” (Bioorg Med Chem Lett, 2012):
Where “and” joins values, the source holds several entries; their conditions need not be identical. Equal values may be shown once. Calls of active or inactive are those of the source. The calls are words filed in the database; no cut-off is given here.

Tests used:
[1] = Metabolic stability in human liver microsomes; type: ADME, Microsome; conditions: read-out: Stability
[2] = Half life in rat at 1 mg/kg, iv; type: ADME, organism-based; design: dose 1 mg/kg, route intravenous; conditions: in vivo
Rattus norvegicus [3] = assay: Clearance in rat at 1 mg/kg, iv; type: ADME, organism-based; design: dose 1 mg/kg, route intravenous; conditions: in vivo
Histamine H4 receptor [4] = target: T1, Histamine H4 receptor (Homo sapiens, UniProt Q9H3N8); assay: Antagonist activity at human histamine H4 receptor expressed in HEK293 cells assessed as rev inhibition of forskolin-stimulated cAMP accumulation by CRE-betalactamase reporter gene assay; type: functional, cell-based
[5] = Chemical stability of the compound in methanol; type: physicochemical
Histamine H3 receptor = Histamine H3 receptor (Homo sapiens, UniProt Q9Y5N1); assay: Binding affinity to human histamine H3 receptor
Histamine H4 receptor [6] = target: T1, Histamine H4 receptor; assay: Displacement of [3H]histamine from human recombinant histamine H4 receptor expressed in CHO cells coexpressing Ga15 by radioligand filtration binding assay; type: cell-based
[7] = Volume of distribution in rat at 1 mg/kg, iv; type: ADME, organism-based; design: dose 1 mg/kg, route intravenous; conditions: in vivo
[8] = Oral bioavailability in rat; type: ADME, organism-based; conditions: in vivo
[9] = Metabolic stability in rat liver microsomes; type: ADME, Microsome; conditions: read-out: Stability
[10] = Half life in rat at 10 mg/kg, sc; type: ADME, organism-based; design: dose 10 mg/kg, route subcutaneous; conditions: in vivo
Rattus norvegicus [11] = assay: Volume of distribution in rat at 10 mg/kg, sc; type: ADME, organism-based; design: dose 10 mg/kg, route subcutaneous; conditions: in vivo
Rattus norvegicus [12] = assay: Clearance in rat at 10 mg/kg, sc; type: ADME, organism-based; design: dose 10 mg/kg, route subcutaneous; conditions: in vivo
Rattus norvegicus [13] = assay: Volume of distribution in rat at 3 mg/kg, sc; type: ADME, organism-based; design: dose 3 mg/kg, route subcutaneous; conditions: in vivo
[14] = Half life in rat at 3 mg/kg, sc; type: ADME, organism-based; design: dose 3 mg/kg, route subcutaneous; conditions: in vivo
[15] = Half life in rat; type: ADME, organism-based; conditions: in vivo

Chain of Histamine H3 receptor (Q9Y5N1 whole entry): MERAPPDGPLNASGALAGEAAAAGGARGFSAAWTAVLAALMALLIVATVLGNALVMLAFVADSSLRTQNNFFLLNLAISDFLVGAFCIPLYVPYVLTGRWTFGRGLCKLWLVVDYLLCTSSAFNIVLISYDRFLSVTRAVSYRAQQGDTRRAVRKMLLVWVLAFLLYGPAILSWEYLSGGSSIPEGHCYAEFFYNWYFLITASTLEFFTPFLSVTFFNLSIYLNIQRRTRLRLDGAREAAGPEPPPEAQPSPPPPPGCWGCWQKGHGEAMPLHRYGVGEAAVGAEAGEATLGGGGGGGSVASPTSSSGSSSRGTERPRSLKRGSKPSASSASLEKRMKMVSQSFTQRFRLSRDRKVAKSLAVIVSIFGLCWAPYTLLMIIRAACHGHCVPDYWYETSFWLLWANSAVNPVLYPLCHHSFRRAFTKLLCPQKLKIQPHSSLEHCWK

| Ki (Histamine H4 receptor [4]) [nM] | Stability [5] | Ki (Histamine H3 receptor) | Ki (Histamine H4 receptor [6]) [nM] | SMILES | other results |
| --- | --- | --- | --- | --- | --- |
| 17.2 | Unstable | 3.09 µM | 9.5 | CN1C[C@@H]2CN(C(=N)c3nc4cc(F)c(F)cc4[nH]3)C[C@@H]2C1 | microsomal CLint [1]: < 7 µL/min/mg; half-life [2]: 660 min; clearance (Rattus norvegicus [3]): 31 mL/min/kg; Vd [7]: 48 L/kg; bioavailability [8]: 20% |
| 56 | Unstable | – | – | CN1C[C@@H]2CN(C(=N)c3nc4cc(Cl)ccc4[nH]3)C[C@@H]2C1 | – |
| 20 | Unstable | > 20 µM | 70 | CN1C[C@@H]2CN(C(=N)c3nc4c(F)c(F)c(F)cc4[nH]3)C[C@@H]2C1 | – |
| 12.4 | Unstable | 3.81 µM | 6.5 | CN1C[C@@H]2CN(C(=N)c3nc4ccccc4[nH]3)C[C@@H]2C1 | – |
| – | Unstable | – | 49 | CN1C[C@@H]2CN(C(=N)c3nc4c(F)c(F)ccc4[nH]3)C[C@@H]2C1 | – |
| 9.1 | Unstable | 1.19 µM | 4.6 | CN1C[C@@H]2CN(C(=N)c3nc4cc(F)ccc4[nH]3)C[C@@H]2C1 | – |
| 134 | – | – | 74 | CN1C[C@@H]2CN(C(=O)c3nc4ccc(F)c(F)c4[nH]3)C[C@@H]2C1 | – |
| 236 | – | 17.9 µM | – | CN1C[C@@H]2CN(C(=O)c3nc4cc(F)c(F)cc4[nH]3)C[C@@H]2C1 | microsomal CLint [1]: < 7 µL/min/mg; half-life [2]: 48 min; clearance (Rattus norvegicus [3]): 58 mL/min/kg; microsomal CLint [9]: 40 µL/min/mg |
| 9.3 | Unstable | – | 4.6 | Cc1c(F)ccc2nc(C(=N)N3C[C@H]4CN(C)C[C@H]4C3)[nH]c12 | – |
| 145 | – | 15.5 µM | – | CN1C[C@@H]2CN(C(=O)c3nc4cc(F)ccc4[nH]3)C[C@@H]2C1 | microsomal CLint [1]: < 7 µL/min/mg; half-life [2]: 42 min; clearance (Rattus norvegicus [3]): 161 mL/min/kg; Vd [7]: 6.1 L/kg |

The next lines start with the compound.

| SMILES | Ki (Histamine H4 receptor [4]) [nM] | Stability [5] | Ki (Histamine H3 receptor) | Ki (Histamine H4 receptor [6]) [nM] | other results |
| --- | --- | --- | --- | --- | --- |
| CN1C[C@@H]2CN(C(=O)c3nc4cc(Cl)ccc4[nH]3)C[C@@H]2C1 | 218 | – | – | 129 | microsomal CLint [1]: < 7 µL/min/mg; microsomal CLint [9]: 36 µL/min/mg |
| Cc1c(F)ccc2nc(C(=O)N3C[C@H]4CN(C)C[C@H]4C3)[nH]c12 | 97 | – | – | 52 | microsomal CLint [1]: < 7 µL/min/mg; microsomal CLint [9]: 214 µL/min/mg |
| CN1CCN(C(=O)c2cn3ccncc3n2)CC1 | > 20000 | – | – | 20100 | – |
| CCN1C[C@@H]2CN(C(=O)c3nc4cc(Cl)ccc4[nH]3)C[C@@H]2C1 | 3300 | – | – | 1960 | – |
| CN1CCN(C(=O)c2cc3cccnc3[nH]2)CC1 | > 29900 | – | 36.6 µM | 3100 | – |
| Clc1ccc2[nH]c(C3=NCCN3)nc2c1 | – | Stable | – | – | inhibition (Histamine H4 receptor [4]): inactive; inhibition (Histamine H4 receptor [6]): inactive |
| CN1C[C@@H]2CN(C(=O)c3cc4cccnc4[nH]3)C[C@@H]2C1 | – | – | – | 973 | – |
| CN1C[C@@H]2CN(C(=O)c3cc4cc(Cl)ccc4[nH]3)C[C@@H]2C1 | – | – | 8.75 µM | – | microsomal CLint [1]: < 7 µL/min/mg |
| CC(C)N1C[C@H]2CN(C(=O)c3nc4cc(Cl)ccc4[nH]3)C[C@H]2C1 | 4490 | – | – | 2670 | – |
| CN1C[C@@H]2CN(C(=O)c3cc4ccc(Cl)nc4[nH]3)C[C@@H]2C1 | – | – | – | 2090 | – |
| CN1CCN(C(=O)c2cn3cc(Cl)ccc3n2)CC1 | > 11400 | – | 28.6 µM | 3170 | – |
| CN1C[C@@H]2CN(C(=O)c3nc4ccccc4[nH]3)C[C@@H]2C1 | 189 | – | – | 102 | – |
| CN1C[C@@H]2CN3C(c4nc5cc(F)c(F)cc5[nH]4)=NC[C@H]3[C@@H]2C1 | – | Stable | – | – | inhibition (Histamine H4 receptor [4]): inactive; inhibition (Histamine H4 receptor [6]): inactive |
| O=C(c1nc2cc(Cl)ccc2[nH]1)N1C[C@H]2CNC[C@H]2C1 | 8180 | – | – | 5080 | – |
| CN1CCN(C(=O)c2nc3cc(Cl)ccc3[nH]2)CC1 | – | – | 20 µM | – | microsomal CLint [1]: 19 µL/min/mg; half-life [10]: 42 min; Vd (Rattus norvegicus [11]): 23 L/kg; clearance (Rattus norvegicus [12]): 700 mL/min/kg |
| CN1CCN(C(=O)c2cc3cc(Cl)ccc3[nH]2)CC1 [JNJ-7777120] | – | – | 15.3 µM and > 20 µM | – | Vd (Rattus norvegicus [13]): 2.3 L/kg; half-life [14]: 12 min; half-life [15]: 42 min |
| CN1C[C@@H]2CN(C(=O)c3cc4cc(Cl)cnc4[nH]3)C[C@@H]2C1 | – | – | – | 83 | – |
